Consider 2 molecules from patent US5304125A, “Apparatus for administering solid particulate aerosols to the lungs” (priority 1993, dated 1994).

Molecules are shown by their SMILES. Counter-ions that a name gives are not always drawn. Some results are limits rather than exact numbers.

Data set [1] in a line: Fate/dose of aerosolized amiloride (respirable, oropharyngeal, systemic) from Spinhaler or MDI in throat/Andersen impactor apparatus. How it is done: The present invention was tested using two devices that generate dry particle aerosols, the Spinhaler™ from Fisons, Inc., See Bell, J. Pharm. Sci. 60, 1559 (1971); Cox, Brit. Med. J. 2, 634 (1969), and the metered-dose inhaler (MDI). The Spinhaler™ consists of a rotor that holds a gelatin capsule containing the dry amiloride powder. After the capsule is pierced, the patient inhales through the mouthpiece causing the rotor to spin and vibrate at a high speed, dispensing and dispersing the drug. The MDI consists of a pressurized canister containing the drug, the propellant, and a surfactant. When activated, the MDI spray disperses the drug within large droplets of propellant into a spacer. Evaporation of the propellant and sedimentation of the larger particles yield dry drug that is inhaled by the patient.
(§1) FIG. 6 is a drawing of the experimental apparatus used in these studies. For the Spinhaler™ tests, lactose was used as a flow aid to dispense amiloride from the capsules. Before use, the lactose was not micronized, but was shaken through a 400 mesh sieve so that all lactose particles used were smaller than 37 μm. Amiloride was then mixed with the lactose in a 1:1 ratio and the material was reshaken through the 400 mesh sieve to break apart any agglomerates. Then 58 mg of the resieved mixture of amiloride and lactose was placed in capsule with pre-drilled holes and loaded into the Spinhaler™. Air at 60 liters per minute (Lpm) flowed in succession through the aerosol generator 60 (a Spinhaler™), an impactor 10 as described in connection with FIGS. 1-4 above, a glass "throat" 61, and a plastic "distal pharynx" 62. Within the distal pharynx an isokinetic sample at 28.3 Lpm flowed through a nozzle 63 and into an Andersen impactor 64. The remaining 31.7 Lpm of the original 60 Lpm was drawn off through a bypass line 65 that led to a filter 66, a rotameter 67, and to a vacuum (not illustrated). Gas that left the Andersen impactor flowed through a filter 68 to a second rotameter 69 to vacuum. To conduct a test, vacuum was applied simultaneously to both the Andersen impactor and the bypass lines. Air flow at 60 Lpm was maintained for four seconds to simulate an inspiration; six inspirations were used for each capsule of drug tested.
Amiloride used with the MDI was first milled until essentially all particles were smaller than 2.6 μm in diameter as determined using an optical microscope. This amiloride was then packaged in an MDI with Freon propellants (trichlorofluoromethane and dichlorodifluoromethane) and a surfactant (sorbitan trioleate), added to break up droplets or aggregates of solid particles. A Nebuhaler™ spacer 27 cm long, (see Newman, 39 Thorax 935 (1984)), was attached to the MDI to allow evaporation of the propellant and to remove larger particles by sedimentation. Prior to each release of drug from the MDI, the canister was shaken vigorously to achieve homogeneity. In each test, the MDI aerosol was dispersed into the spacer via a 50 μl metering valve designed to deliver 1 mg amiloride per puff; however, the actual delivery was closer to 3 mg/puff as determined by spectrophotometric analysis of all amiloride collected as discussed below. Leakage of some liquid from the MDI canisters between the filling time and the actual usage would have increased the concentration of amiloride without affecting internal canister pressure. Following the dispersion and a one second delay, vacuum was applied to both the Andersen impactor and bypass lines and maintained for four seconds. This procedure was repeated for a total of six aerosol puffs from the MDI for each test The MDI tests, like the Spinhaler™ tests, used a total flow of 60 Lpm; 28.3 to the Andersen impactor and […] through the bypass line.
Tests were conducted with the MDI and spacer both with and without the impactor. […]

Data set [2] is described as follows: Aerosol size distribution (Andersen impactor). The format is physicochemical. The settings on record: 60 Lpm. Here is the method: as §1, with “SpinhalerTM” for “Spinhaler™”, “reshaken” left out, “resieved” left out, “SpinhalerTM.” for “Spinhaler™.”, “SpinhalerTM),” for “Spinhaler™),”, “tested. […] This amiloride was then packaged in an MDI with Freon propellants (trichlorofluoromethane and dichlorodifluoromethane) and a surfactant (sorbitan trioleate), added to break up droplets or aggregates of solid particles. A NebuhalerTM spacer 27 cm long, (see Newman, 39 Thorax 935 (1984)), was attached to the MDI to allow evaporation of the propellant and to remove larger particles by sedimentation. Prior to each release of drug from the MDI, the canister was shaken vigorously to achieve homogeneity. […] Leakage of some liquid from the MDI canisters between the filling time and the actual usage would have increased the concentration of amiloride without affecting internal canister pressure. […] The fractional efficiency of the impactor was determined by comparing the mass of amiloride collected on each stage of the Andersen impactor with and without the impactor in place. […] The components analyzed for amiloride included the SpinhalerTM and its used capsule, the NebuhalerTM spacer when used, the impactor when used, the glass throat, the distal pharynx, and the sidearm filter, plus the entry nozzle, six individual plates, and final filter of the Andersen impactor. Washes from each of these components were then analyzed for amiloride. […]” for “tested.”

For data set [3] the following is noted: in vivo.
For a further data set, the system named is cystic fibrosis. The settings on record: liquid aerosol; Knowles, N. Engl. J. Med. (1990); cited from earlier work.
Data set [4] deals with luminal membrane of airway epithelia. Particulars: applied to the luminal membrane of airway epithelia; cited from earlier work.
The subject of data set [5] is Na^+ transport rates by cystic fibrosis airway epithelia. Nature of the data set: Ussing chamber bioassay of Na+ transport (short circuit current) in freshly excised human cystic fibrosis airway epithelia. The format is cell-based. The text has this:
Freshly excised human cystic fibrosis airway […] used to assay bioactive amiloride in solution. Freshly excised tissues is obtained from the Operating Room at The University of North Carolina Hospitals as previously described. R. Boucher, M. Stutts, M. Knowles, L. Cantley, and J. Gatzy, Na+ transport in cystic fibrosis respiratory epithelia. Abnormal basal rate and response to adenylate cyclase activation. J. Clin. Invest. 78, 1245-1252 (1986). The tissue preparation is mounted in a minature Ussing chamber that has 6 ml of solution bathing each (mucosal; basolateral) surface of the preparation. The solution is a Krebs-Ringer bicarbonate solution which approximates the ionic composition of plasma. This solution is warmed (37°) and circulated with a gas lift (95% oxygen, 5% CO2) system. Mixing time in this chamber has been previously measured by calibration with dyes (blue dextran) and is five seconds or less. The measurement of sodium transport rates is performed using a voltage clamp that is interfaced to the tissue preparation by pairs of potential sensing electrodes and current passing electrodes. The current required to null the transepithelial potential difference to zero is the short circuit current, which in human airway tissue is an accurate index of sodium transport rates. See R. Boucher et al., supra. […] This experiment was conducted as described above. […]

`N=C(N)NC(=O)c1nc(Cl)c(N)nc1N` [amiloride]: in data set [1], the “oropharyngeal deposition, fraction of generated amiloride” value is on record as 1.6%; the “systemic dose relative to maximum” value is listed as at most 20 mg/day; the “total systemic daily dose” value is 16.7 mg. Moreover, in data set [1] (MDI or Spinhaler without spacer or impactor), the “oropharyngeal deposition (in words)” value was “high”. Moreover, the “systemic dose relative to maximum (in words)” value in data set [1] (MDI with spacer alone, 12 mg/day respirable) is listed as “somewhat higher than the maximum”. Moreover, in data set [1] (Spinhaler alone), the “oropharyngeal dose (in words)” value is “far too high” and the “systemic dose (in words)” value is “excessive”. In data set [1] (with spacer or impactor, most particles larger than about 5 μm removed), the “oropharyngeal deposition (in words)” value was “decreases substantially”. Also, the “mass median diameter (mmd)” value in data set [2] (MDI with spacer and impactor) was “about 3 um”. Besides, the “mass median diameter (mmd)” value in data set [2] (MDI with spacer, no impactor) was “about 6 um”. Further, the “mass median diameter (mmd)” value in data set [2] (Spinhaler alone) is over 10 um. Besides, in data set [2] (Spinhaler with impactor), the “mass median diameter (mmd)” value is “about 4 um”. In data set [3], this molecule yielded a maximum systemic dose of 20 mg daily and an optimal respirable dose of 8 to 12 mg daily. Moreover, the clinical benefit result in the data set on cystic fibrosis is reported as “confirmed clinical benefit”. In addition, the “inhibition of Na^+ and water absorption” value in data set [4] is “inhibit Na^+ and water absorption”.
Consider `N=C(N)NC(=O)c1nc(Cl)c(N)nc1N` [amiloride hydrochloride], for which the “time to complete inhibition of ISC (Na^+ transport)” value in data set [5] (Krebs-Ringer bicarbonate, 37°, human CF airway epithelia, dry powder particle size about 1 μm) is “about sixty”. In data set [5] (respirable particles ~1 μm, aqueous solution approximating the ionic strength of plasma), the “timed release effect (dissolution of solid particles)” value was “dissolved slowly over time”.
